Laboratory results taken from the NIST ThermoML archive (doi:10.1016/j.jct.2014.07.001).

Experiment: xn = mol fraction of the nth substance listed
Conditions: Drop volume

CCCC[n+]1ccc(C)cc1.F[B-](F)(F)F [1-butyl-4-methylpyridinium tetrafluoroborate] + CO
surface tension liquid-gas [mN/m]
Conditions | 293.15 K | 303.15 K | 313.15 K | 323.15 K
x1 = 0.0247 | 23.3 | 22.55 | 21.71 | 20.88
x1 = 0.0983 | 25.35 | 24.66 | 23.92 | 23.23
x1 = 0.195 | 27.93 | 27.31 | 26.68 | 26.12
x1 = 0.2914 | 30.53 | 29.98 | 29.46 | 29.05
x1 = 0.3909 | 33.11 | 32.62 | 32.2 | 31.91
x1 = 0.4915 | 35.62 | 35.17 | 34.81 | 34.6
x1 = 0.5378 | 36.77 | 36.34 | 36.02 | 35.84
x1 = 0.61 | 38.46 | 38.04 | 37.73 | 37.57
x1 = 0.6875 | 40.19 | 39.77 | 39.45 | 39.29
x1 = 0.7911 | 42.37 | 41.9 | 41.55 | 41.32
x1 = 0.842 | 43.32 | 42.81 | 42.4 | 42.1
x1 = 0.8754 | 43.91 | 43.36 | 42.91 | 42.54
x1 = 1 | 45.82 | 45.09 | 44.41 | 43.71

CCCC[n+]1cccc(C)c1.F[B-](F)(F)F [1-butyl-3-methylpyridinium tetrafluoroborate] + CO
surface tension liquid-gas [mN/m]
Conditions | 293.15 K | 303.15 K | 313.15 K | 323.15 K
x1 = 0.0489 | 23.93 | 23.18 | 22.36 | 21.55
x1 = 0.1011 | 25.33 | 24.62 | 23.88 | 23.15
x1 = 0.1984 | 27.89 | 27.26 | 26.63 | 26.04
x1 = 0.2961 | 30.43 | 29.87 | 29.36 | 28.9
x1 = 0.4021 | 33.15 | 32.66 | 32.26 | 31.9
x1 = 0.4935 | 35.36 | 34.89 | 34.55 | 34.25
x1 = 0.5892 | 37.57 | 37.12 | 36.81 | 36.56
x1 = 0.688 | 39.67 | 39.2 | 38.86 | 38.62
x1 = 0.7395 | 40.72 | 40.22 | 39.87 | 39.6
x1 = 0.8001 | 41.87 | 41.35 | 40.95 | 40.65
x1 = 0.8803 | 43.3 | 42.72 | 42.23 | 41.86
x1 = 0.935 | 44.21 | 43.56 | 42.99 | 42.53
x1 = 1 | 45.21 | 44.48 | 43.8 | 43.24
